These results are taken from patent US9924717B2, “Molecules having pesticidal utility, and intermediates, compositions, and processes, related thereto” (Dow AgroSciences LLC, priority 2016, dated 2018).

Where two headings read alike, the source gives them in different places.

What all share (assay type): in vivo
Assay [1] concerns Beet Armyworm (Spodoptera exigua, LAPHEG) (BAW). Put plainly: Bioassays on Beet Armyworm (BAW), 128-well diet tray assay. The conditions noted are these: for pest or weed control at 50 µg/cm2: Table ABC rating, Beet Armyworm; for mortality at 5 µg/cm2: 168 h, diet tray, second instar larvae, five to seven days, read-out: Percent control (or mortality) BAW. The protocol:
(§1) Example A: Bioassays on Beet Armyworm (Spodoptera exigua, LAPHEG) (“BAW”), Corn Earworm (Helicoverpa zea, Helize) (“CEW”), and Cabbage Looper (Trichoplusia ni, TRIPNI) (“CL”)
(§2) Certain molecules disclosed in this document were tested against BAW, CEW, and CL using procedures described in the following examples. In the reporting of the results, the “BAW, CEW, & CL Rating Table” was used (See Table Section).
Bioassays on BAW were conducted using a 128-well diet tray assay. one to five second instar BAW larvae were placed in each well (3 mL) of the diet tray that had been previously filled with 1 mL of artificial diet to which 50 μg/cm^2 of the test molecule (dissolved in 50 μL of 90:10 acetone-water mixture) had been applied (to each of eight wells) and then allowed to dry. Trays were covered with a clear self-adhesive cover and held at 25° C., 14:10 light-dark for five to seven days. Percent mortality was recorded for the larvae in each well; activity in the eight wells was then averaged. The results are indicated in the table entitled “Table ABC: Biological Results” (See Table Section).
(§3) Bioassays on BAW and CL were conducted according to the procedures outlined in Example A: Bioassays on Beet Armyworm (“BAW”) and Cabbage Looper (“CL”) using the indicated concentrations.

Assay [2] has as its system Cabbage Looper (Trichoplusia ni, TRIPNI) (CL). As to the kind of experiment: Bioassays on Cabbage Looper (CL), 128-well diet tray assay. Particulars: for pest or weed control at 50 µg/cm2: Table ABC rating, Cabbage Looper; for mortality at 5 µg/cm2: 168 h, diet tray, second instar larvae, five to seven days, read-out: Percent control (or mortality) CL. As for the experimental part:
as §1, §2
Bioassays on CL were conducted using a 128-well diet tray assay. one to five second instar CL larvae were placed in each well (3 mL) of the diet tray that had been previously filled with 1 mL of artificial diet to which 50 μg/cm^2 of the test molecule (dissolved in 50 μL of 90:10 acetone-water mixture) had been applied (to each of eight wells) and then allowed to dry. Trays were covered with a clear self-adhesive cover and held at 25° C., 14:10 light-dark for five to seven days. Percent mortality was recorded for the larvae in each well; activity in the eight wells was then averaged. The results are indicated in the table entitled “Table ABC: Biological Results” (See Table Section).
as §3

In assay [3] the test system is Yellow Fever Mosquito (Aedes aegypti, AEDSAE) (YFM). As to the kind of experiment: Bioassays on Yellow Fever Mosquito (YFM), 96-well plate larval assay. The conditions noted are these: Table ABC rating. As for the experimental part: Example C: Bioassays on Yellow Fever Mosquito (Aedes aegypti, AEDSAE) (“YFM”)
Certain molecules disclosed in this document were tested against YFM using procedures described in the following paragraph. In the reporting of the results, the “GPA & YFM Rating Table” was used (See Table Section).
Master plates containing 400 μg of a molecule dissolved in 100 μL of dimethyl sulfoxide (DMSO) (equivalent to a 4000 ppm solution) are used. A master plate of assembled molecules contains 15 μL per well. To this plate, 135 μL of a 90:10 water:acetone mixture is added to each well. A robot (Biomek® NXP Laboratory Automation Workstation) is programmed to dispense 15 μL aspirations from the master plate into an empty 96-well shallow plate (“daughter” plate). There are 6 reps (“daughter” plates) created per master. The created daughter plates are then immediately infested with YFM larvae.
The day before plates are to be treated, mosquito eggs are placed in Millipore water containing liver powder to begin hatching (4 g. into 400 mL). After the daughter plates are created using the robot, they are infested with 220 μL of the liver powder/larval mosquito mixture (about 1 day-old larvae). After plates are infested with mosquito larvae, a non-evaporative lid is used to cover the plate to reduce drying. Plates are held at room temperature for 3 days prior to grading. After 3 days, each well is observed and scored based on mortality. The results are indicated in the table entitled “Table ABC: Biological Results” (See Table Section).

The mark [4] stands for this setting: 5 μg/cm^2 (first BAW/CL column pair).
Setting [5] is: 5 μg/cm^2 as printed (second BAW/CL column pair).

As usually defined, the pest or weed control is how far the test organism was held down. Read a low pest or weed control as weak suppression. On to `O=C(NCc1ccc(Cl)nc1)c1ccc(/C(F)=C/C(c2cc(Cl)c(Cl)c(Cl)c2)C(F)(F)F)cc1C(F)(F)F` (stereo not drawn) [F11, (Z)—N-((6-Chloropyridin-3-yl)methyl)-4-(1,4,4,4-tetrafluoro-3-(3,4,5-trichlorophenyl)but-1-en-1-yl)-2-(trifluoromethyl)benzamide], for which the pest or weed control at 50 µg/cm2 in assay [1] and in assay [2] was 50 to 100% each time. Further, in assay [3], the YFM result was “A (80-100)”.

In the case of `O=C(NC1CC1)c1ccc(/C(F)=C/C(c2cc(Br)c(Cl)c(Br)c2)C(F)(F)F)cc1C(F)(F)F` (stereo not drawn) [F12, (Z)—N-cyclopropyl-4-(3-(3,5-dibromo-4-chlorophenyl)-1,4,4,4-tetrafluorobut-1-en-1-yl)-2-(trifluoromethyl)benzamide], the pest or weed control at 50 µg/cm2 in assay [1] and in assay [2] was 50 to 100% each time. Moreover, the YFM entry in assay [3] is given as “A (80-100)”.

`CC(NC(=O)c1ccc(/C(F)=C/C(c2cc(Cl)cc(Cl)c2)C(F)(F)F)cc1C(F)(F)F)C(F)(F)F` (stereo not drawn) [F15, 4-((Z)-3-(3,5-Dichlorophenyl)-1,4,4,4-tetrafluorobut-1-en-1-yl)-2-(trifluoromethyl)-N-(1,1,1-trifluoropropan-2-yl)benzamide]: the pest or weed control at 50 µg/cm2 in assay [1] and in assay [2] was 50 to 100% each time. Besides, the YFM result in assay [3] is recorded as “A (80-100)”.

Take `C[C@@H](NC(=O)c1ccc(/C(F)=C/C(c2ccc(Cl)c(Cl)c2)C(F)(F)F)cc1C(F)(F)F)C(F)(F)F` (stereo partly drawn) [F16, 4-((Z)-3-(3,4-Dichlorophenyl)-1,4,4,4-tetrafluorobut-1-en-1-yl)-2-(trifluoromethyl)-N—((R)-1,1,1-trifluoropropan-2-yl)benzamide]: the pest or weed control at 50 µg/cm2 in assay [1] and in assay [2] was 50 to 100% each time. Further, the YFM entry in assay [3] is “A (80-100)”.

On to `O=C(NC1CCC(F)(F)CC1)c1ccc(/C(F)=C/C(c2cc(Cl)c(Br)c(Cl)c2)C(F)(F)F)cc1C(F)(F)F` (stereo not drawn) [F21], for which the pest or weed control at 50 µg/cm2 in assay [1] and in assay [2] was 50 to 100% each time. Further, the YFM result in assay [3] is “A (80-100)”.

Turning to `O=C(NC1CC1)c1ccc(/C(F)=C/C(c2cc(Cl)c(Br)c(Cl)c2)C(F)(F)F)cc1C(F)(F)F` (stereo not drawn) [F22, (Z)-4-(3-(4-Bromo-3,5-dichlorophenyl)-1,4,4,4-tetrafluorobut-1-en-1-yl)-N-cyclopropyl-2-(trifluoromethyl)benzamide], the pest or weed control at 50 µg/cm2 in assay [1] and in assay [2] was 50 to 100% throughout. Besides, the YFM result in assay [3] is “A (80-100)”.

On to `O=C(NC1CC1)c1ccc(/C(F)=C/C(c2cc(Cl)cc(Cl)c2)C(F)(F)F)cc1C(F)(F)F` (stereo not drawn) [F23, (Z)—N-Cyclopropyl-4-(3-(3,5-dichlorophenyl)-1,4,4,4-tetrafluorobut-1-en-1-yl)-2-(trifluoromethyl)benzamide], for which the pest or weed control at 50 µg/cm2 in assay [1] and in assay [2] was 50 to 100% each time. Besides, the YFM entry in assay [3] is “A (80-100)”.

Consider `O=C(NC1CCC(F)(F)CC1)c1ccc(/C(F)=C/C(c2ccc(Cl)c(Cl)c2)C(F)(F)F)cc1C(F)(F)F` (stereo not drawn) [F24, (Z)-4-(3-(3,4-Dichlorophenyl)-1,4,4,4-tetrafluorobut-1-en-1-yl)-N-(4,4-difluorocyclohexyl)-2-(trifluoromethyl)benzamide], for which the pest or weed control at 50 µg/cm2 in assay [1] and in assay [2] was 50 to 100% each time. Besides, the YFM entry in assay [3] is “A (80-100)”.

By mortality is commonly meant the share of the test organisms that died. In the case of `Cc1cc(/C(F)=C/C(c2cc(Cl)c(Cl)c(Cl)c2)C(F)(F)F)ccc1C(=O)NCC(F)(F)F` (stereo not drawn) [F39, (Z)-2-Methyl-4-(1,4,4,4-tetrafluoro-3-(3,4,5-trichlorophenyl)but-1-en-1-yl)-N-(2,2,2-trifluoroethyl)benzamide], the mortality at 5 µg/cm2 in assay [1] (setting [4]) came out at 33%; in assay [1] (setting [5]), 27%; in assay [2] (setting [4]) it was 100%; in assay [2] (setting [5]), 100%. In addition, the pest or weed control at 50 µg/cm2 in assay [1] and in assay [2] was 50 to 100% in each case.

Consider `O=C(NCc1ccnc(Cl)c1)c1ccc(/C(F)=C/C(c2cc(Cl)c(Cl)c(Cl)c2)C(F)(F)F)cc1C(F)(F)F` (stereo not drawn) [F47, (Z)—N-((2-Chloropyridin-4-yl)methyl)-4-(1,4,4,4-tetrafluoro-3-(3,4,5-trichlorophenyl)but-1-en-1-yl)-2-(trifluoromethyl)benzamide], for which the pest or weed control at 50 µg/cm2 in assay [1] and in assay [2] was 50 to 100% each time.

As to `C[C@H](CNCC(F)(F)F)NC(=O)c1ccc(/C(F)=C/C(c2cc(Cl)c(Cl)c(Cl)c2)C(F)(F)F)cc1C(F)(F)F` (stereo partly drawn) [F61, 4-((Z)-1,4,4,4-Tetrafluoro-3-(3,4,5-trichlorophenyl)but-1-en-1-yl)-N—((R)-1-((2,2,2-trifluoroethyl)amino)propan-2-yl)-2-(trifluoromethyl)benzamide], the pest or weed control at 50 µg/cm2 in assay [1] and in assay [2] was 50 to 100% in each case.

In the case of `N#CC1(NC(=O)c2ccc(/C(F)=C/C(c3cc(Cl)c(Cl)c(Cl)c3)C(F)(F)F)cc2C(F)(F)F)CC1` (stereo not drawn) [F62, (Z)—N-(1-Cyanocyclopropyl)-4-(1,4,4,4-tetrafluoro-3-(3,4,5-trichlorophenyl)but-1-en-1-yl)-2-(trifluoromethyl)benzamide], the pest or weed control at 50 µg/cm2 in assay [1] and in assay [2] was 50 to 100% throughout.

Consider `O=C(NC1CC(F)(F)C1)c1ccc(/C(F)=C/C(c2ccc(F)c(Cl)c2)C(F)(F)F)cc1C(F)(F)F` (stereo not drawn) [F63, (Z)-4-(3-(3-Chloro-4-fluorophenyl)-1,4,4,4-tetrafluorobut-1-en-1-yl)-N-(3,3-difluorocyclobutyl)-2-(trifluoromethyl)benzamide], for which the pest or weed control at 50 µg/cm2 in assay [1] and in assay [2] was 50 to 100% in each case.

Take `O=C(NCC(F)(F)F)c1ccc(/C(F)=C/C(c2cc(Cl)c(Cl)c(Cl)c2)C(F)(F)F)cc1` (stereo not drawn) [FC1, (Z)-4-(1,4,4,4-tetrafluoro-3-(3,4,5-trichlorophenyl)but-1-en-1-yl)-N-(2,2,2-trifluoroethyl)benzamide]: the mortality at 5 µg/cm2 in assay [1] (setting [4]) was found to be 25%; in assay [1] (setting [5]), 0%; in assay [2] (setting [4]), 100%; in assay [2] (setting [5]), 6%.

Consider `O=C(NC1CSC1)c1ccc(/C(F)=C/C(c2cc(Cl)c(Cl)c(Cl)c2)C(F)(F)F)cc1C(F)(F)F` (stereo not drawn) [PF2, (Z)-4-(1,4,4,4-Tetrafluoro-3-(3,4,5-trichlorophenyl)but-1-en-1-yl)-N-(thietan-3-yl)-2-(trifluoromethyl)benzamide], for which the pest or weed control at 50 µg/cm2 in assay [1] and in assay [2] was 50 to 100% each time.

On to `O=C(NC1C[S+]([O-])C1)c1ccc(/C(F)=C/C(c2cc(Cl)c(Cl)c(Cl)c2)C(F)(F)F)cc1C(F)(F)F` (stereo not drawn) [PF3], for which the pest or weed control at 50 µg/cm2 in assay [1] and in assay [2] was 50 to 100% each time.

Turning to `O=C(NC1CS(=O)(=O)C1)c1ccc(/C(F)=C/C(c2cc(Cl)c(Cl)c(Cl)c2)C(F)(F)F)cc1C(F)(F)F` (stereo not drawn) [PF4, (Z)—N-(1,1-Dioxidothietan-3-yl)-4-(1,4,4,4-tetrafluoro-3-(3,4,5-trichlorophenyl)but-1-en-1-yl)-2-(trifluoromethyl)benzamide], the pest or weed control at 50 µg/cm2 in assay [1] and in assay [2] was 50 to 100% throughout.
